Reference: US7364866B2, “Drosophila G protein coupled receptors, nucleic acids, and methods related to the same” (Pharmacia & Upjohn Company, priority 1999, dated 2008)
Residues, ends and D or L forms follow the SMILES beside them. No end group written: not given here.

Legend:
DmGPCR9 = test: calcium mobilization assay (FLIPR); format: cell-based, Drosophila melanogaster; conditions: tested at 10 μM
Description: (§1) Changes in intracellular calcium levels are another recognized indicator of G protein-coupled receptor activity, and such assays can be employed to screen for modulators of DmGPCR activity. For example, CHO cells stably transfected with a DmGPCR expression vector are plated at a density of 4×10^4 cells/well in Packard black-walled, 96-well plates specially designed to discriminate fluorescence signals emanating from the various wells on the plate. The cells are incubated for 60 minutes at 37° C. in modified Dulbecco's PBS (D-PBS) containing 36 mg/L pyruvate and 1 g/L glucose and one of four calcium indicator dyes (Fluo-3™ AM, Fluo-4™ AM, Calcium Green™-1 AM, or Oregon Green™ 488 BAPTA-1 AM), each at a concentration of 4 μM. […]
(§2) A calcium response is initiated by the addition of one or more candidate receptor agonist compounds, calcium ionophore A23187 (10 μM; positive control), or ATP (4 μM; positive control). Fluorescence is measured by Molecular Device's FLIPR with an argon laser (excitation at 488 nm). […] Basal fluorescence of cells was measured for 20 seconds prior to addition of candidate agonist, ATP, or A23187, and the basal fluorescence level was subtracted from the response signal. The calcium signal is measured for approximately 200 seconds, taking readings every two seconds. […]

DmGPCR5 [1] = biological target: T1, DmGPCR5 (Drosophila melanogaster, UniProt P30975, L70Q); test: cell-based
T1 sequence (P30975 whole entry L70Q): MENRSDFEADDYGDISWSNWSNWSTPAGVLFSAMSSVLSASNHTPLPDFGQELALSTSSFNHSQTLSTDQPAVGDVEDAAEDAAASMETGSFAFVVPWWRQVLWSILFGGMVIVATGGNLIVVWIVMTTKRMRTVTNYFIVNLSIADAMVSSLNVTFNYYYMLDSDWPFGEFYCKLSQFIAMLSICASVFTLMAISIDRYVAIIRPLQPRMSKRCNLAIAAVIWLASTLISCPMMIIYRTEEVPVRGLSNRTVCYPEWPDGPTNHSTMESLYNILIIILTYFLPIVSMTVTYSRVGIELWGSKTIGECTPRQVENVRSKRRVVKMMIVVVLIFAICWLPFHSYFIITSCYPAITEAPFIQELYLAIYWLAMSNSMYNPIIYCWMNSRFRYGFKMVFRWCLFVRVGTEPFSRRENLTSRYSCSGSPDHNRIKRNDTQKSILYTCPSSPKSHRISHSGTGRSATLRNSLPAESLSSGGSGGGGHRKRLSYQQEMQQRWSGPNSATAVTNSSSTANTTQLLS
Description: The photoprotein luciferase provides another useful tool for assaying for modulators of DmGPCR activity. Cells (e.g., CHO cells or COS7 cells) are transiently co-transfected with both a DmGPCR expression construct (e.g., DmGPCR in pzeoSV2) and a reporter construct which includes a gene for the luciferase protein downstream from a transcription factor binding site, such as the cAMP-response element (CRE), AP-1, or NF-kappa B. Agonist binding to receptors coupled to the Gs subtype of G proteins leads to increases in cAMP, thereby activating the CRE transcription factor and resulting in expression of the luciferase gene. […] Luciferase activity may be quantitatively measured using, e.g., luciferase assay reagents that are commercially available from Promega (Madison, Wis.).
In one exemplary assay, CHO cells are plated in 24-well culture dishes at a density of 100,000 cells/well one day prior to transfection and cultured at 37° C. in MEM (Gibco/BRL) supplemented with 10% fetal bovine serum, 2 mM glutamine, 10 μg/ml penicillin, and 10 μg/ml streptomycin. […] After incubation for 15 minutes at room temperature, 15 μl of the lysate is mixed with 50 μl of substrate solution (Promega) in an opaque-white, 96-well plate, and the luminescence is read immediately on a Wallace model 1450 MicroBeta scintillation and luminescence counter (Wallace Instruments, Gaithersburg, Md.). […]

DmGPCR5 [2] = biological target: T1, DmGPCR5; test: biochemical; set-up: expressed in transfected cells; host or cells: CHO-1000A (so in the source), transient
Description: (§3) The transfected cells were washed once with ice-cold Dulbecco's phosphate buffered saline (PBS), 5 ml per 10 cm plate, and scraped into 5 ml of the same buffer. Cell suspensions from multiple plates were combined and centrifuged at 500×g for 10 min at 4° C. The cell pellet was reconstituted in ice-cold TEE (25 mM TRIS, 5 mM EGTA, 5 mM EDTA). Convenient aliquots were snap-frozen in liquid nitrogen and stored at −70° C. After thawing, the cells were homogenized and centrifuged at 4° C., 500×g for 5 minutes to pellet nuclei and unbroken cells. The supernatant was centrifuged at 47,000×g for 30 minutes at 4° C. The membrane pellet was washed once with TEE, resuspended in 20 mM HEPES, pH 7.4, 100 mM NaCl, 10 mM MgCl2, 1 mM EDTA (assay buffer), aliquoted and frozen in liquid nitrogen. Membrane aliquots were stored at −70° C. Membrane protein concentration was determined using the BCA Protein Assay Reagent from Pierce (Rockford, Ill.) and BSA as standard.
Initially, reaction mixtures were prepared in 96-well polypropylene plates (Nunc). In each well, peptide aqueous solution (20 μl, 10×), or water controls (20 μl), 18.2 μM GDP in assay buffer (0.11 ml, 10 μM final), and membranes suspended in assay buffer (50 μl, 10 μg membrane protein) were mixed and placed on ice. […] Then the membranes were washed 3 times with 0.25 ml ice-cold wash buffer/well (10 mM HEPES, 10 mM MgCl2, pH 7.4) and vacuum filtered. […] Each treatment was carried out in triplicates.
(§4) Ligand-induced stimulation of [^35S]GTPγS binding was expressed as fold increase over the basal activity with no ligand added. Each treatment was run either in triplicate, or, on occasion, in duplicate, and the binding (cpm) was calculated as means +/− standard deviations. Dose-response curves for the receptor/ligand systems were analyzed using a non-linear least square SAS model, y=Bmax X/(Kd+X). Other dose-response curves were analyzed using Prism (GraphPad Software, Inc. San Diego, Calif.) and the following equation y=Bottom+(Top−Bottom)/(1+10^LogEC50-X).
(§5) Originally, we have chosen the GTPγS assay as a functional assay because agonist-driven stimulation of GTPγS reflects early events in the DmGPCR activation cascade, regardless of further activation pathways of various down-stream signaling events. This appears especially useful for the assessment of possible activation of orphan DmGPCRs with unknown functions and unknown signaling pathways. The GTPγS assay was carried out with membranes prepared from CHO cells transiently transfected with DNA encoding Drosophila GPCRs using a 96-well MultiScreen G/FB filter plates and a MultiScreen vacuum manifold (Millipore) for filtration. Since the GTPγS assay is known to poorly recognize GPCRs coupled to the Gq class of G-proteins, a Ca^+2 mobilization assay based on a FLIPR readout was used as well to evaluate Gq-coupled orphan GPCRs in CHO cells transiently transfected with DNA encoding Drosophila GPCRs.

DmGPCR1 = test: Ca+2 mobilization assay (FLIPR), transfected CHO cells; format: cell-based, Drosophila melanogaster
Description: as §1, §2

[3] = tested on: CHO cells stably transfected with a DmGPCR expression vector; test: Intracellular calcium measurement using FLIPR, positive controls; format: cell-based, Chinese hamster; conditions: positive controls: A23187 10 μM, ATP 4 μM
Description: as §1, §2

DmGPCR6a = biological target: T2, DmGPCR6a (Drosophila melanogaster, UniProt P25931, I47L); test: [35S]GTPγS binding assay, membranes of transfected CHO cells; format: biochemical; conditions: peptide tested at 5 μM
T2 construct: expressed in transfected cells; host or cells: CHO cells, transient
T2 sequence (P25931 16-464 I47L): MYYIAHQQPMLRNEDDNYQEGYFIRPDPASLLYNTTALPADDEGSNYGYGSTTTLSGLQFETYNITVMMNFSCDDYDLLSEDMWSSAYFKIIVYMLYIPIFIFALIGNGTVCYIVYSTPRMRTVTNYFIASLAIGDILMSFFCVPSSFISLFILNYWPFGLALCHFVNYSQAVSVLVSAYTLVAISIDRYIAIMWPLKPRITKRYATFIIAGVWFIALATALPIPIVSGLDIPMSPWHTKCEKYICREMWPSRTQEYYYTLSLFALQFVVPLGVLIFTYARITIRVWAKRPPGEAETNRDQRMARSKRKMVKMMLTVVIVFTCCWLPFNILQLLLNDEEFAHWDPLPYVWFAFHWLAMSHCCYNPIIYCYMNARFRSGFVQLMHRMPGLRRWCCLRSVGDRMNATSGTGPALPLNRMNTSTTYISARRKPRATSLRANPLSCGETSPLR
Description: as §3, with “The membrane pellet was washed once with TEE, resuspended in 20 mM HEPES, pH 7.4, 100 mM NaCl, 10 mM MgCl2, 1 mM EDTA (assay buffer), aliquoted and frozen in liquid nitrogen. Membrane aliquots were stored at −70° C.” left out, “standard. […]” for “standard.”
as §4, with “y=Bottom+(Top−Bottom)/(1+10^LogEC50-X). […]” for “y=Bottom+(Top−Bottom)/(1+10^LogEC50-X).”

Dmgpcr6aL = biological target: T3, Dmgpcr6aL (Drosophila melanogaster, UniProt P25931, I47L); test: calcium mobilization assay (FLIPR); format: cell-based; conditions: FaRPs tested at 10 μM, active sequences listed in Table 7 (6aL and 6bL)
T3 construct: A new 5′ PCR primer was designed that incorporated the PnuFlyPep15731 start codon; expressed in transfected cells; host or cells: CHO-K1 or CHO-10001A, transient
T3 sequence (P25931 whole entry I47L): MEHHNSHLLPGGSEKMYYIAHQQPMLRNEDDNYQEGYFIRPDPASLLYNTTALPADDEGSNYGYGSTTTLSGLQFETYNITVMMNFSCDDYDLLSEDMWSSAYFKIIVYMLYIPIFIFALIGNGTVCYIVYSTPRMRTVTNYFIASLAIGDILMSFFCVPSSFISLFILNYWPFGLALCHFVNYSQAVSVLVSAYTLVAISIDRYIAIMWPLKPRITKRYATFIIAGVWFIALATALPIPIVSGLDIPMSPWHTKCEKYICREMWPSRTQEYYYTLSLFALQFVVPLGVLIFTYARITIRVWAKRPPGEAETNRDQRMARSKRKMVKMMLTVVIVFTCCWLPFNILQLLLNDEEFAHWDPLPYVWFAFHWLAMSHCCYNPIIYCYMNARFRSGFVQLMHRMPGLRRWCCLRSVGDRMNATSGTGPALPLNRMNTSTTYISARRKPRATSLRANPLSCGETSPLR
Description: as §1, §2

Dmgpcr6bL = biological target: T4, Dmgpcr6bL (Drosophila melanogaster, UniProt P25931, I47L); test: calcium mobilization assay (FLIPR); format: cell-based; conditions: FaRPs tested at 10 μM, active sequences listed in Table 7 (6aL and 6bL)
T4 construct: A new 5′ PCR primer was designed that incorporated the PnuFlyPep15731 start codon; expressed in transfected cells; host or cells: CHO-K1 or CHO-10001A, transient
T4 sequence (P25931 other isoform, or with tags, fused parts or gaps I47L): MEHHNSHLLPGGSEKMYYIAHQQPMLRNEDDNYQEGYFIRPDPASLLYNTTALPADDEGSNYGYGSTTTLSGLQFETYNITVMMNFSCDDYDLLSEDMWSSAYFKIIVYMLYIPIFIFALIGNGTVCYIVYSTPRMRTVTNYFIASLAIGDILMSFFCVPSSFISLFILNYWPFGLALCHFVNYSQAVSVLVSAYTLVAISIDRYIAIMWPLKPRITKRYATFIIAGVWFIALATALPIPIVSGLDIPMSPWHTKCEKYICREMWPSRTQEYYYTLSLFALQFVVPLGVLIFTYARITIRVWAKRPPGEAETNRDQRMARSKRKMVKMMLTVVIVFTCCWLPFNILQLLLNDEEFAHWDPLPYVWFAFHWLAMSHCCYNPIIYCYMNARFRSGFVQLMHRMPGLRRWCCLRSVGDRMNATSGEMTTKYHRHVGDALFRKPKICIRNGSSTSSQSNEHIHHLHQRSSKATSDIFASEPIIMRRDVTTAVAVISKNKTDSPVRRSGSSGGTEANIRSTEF
Description: as §1, §2

DmGPCR7 = test: FLIPR analysis of intracellular calcium release; format: cell-based, Drosophila melanogaster; conditions: DmGPCR7 in CHO-10001A cells; peptides with C-terminal HSWGa; given in words
Sequence of DmGPCR7 (as listed by the source): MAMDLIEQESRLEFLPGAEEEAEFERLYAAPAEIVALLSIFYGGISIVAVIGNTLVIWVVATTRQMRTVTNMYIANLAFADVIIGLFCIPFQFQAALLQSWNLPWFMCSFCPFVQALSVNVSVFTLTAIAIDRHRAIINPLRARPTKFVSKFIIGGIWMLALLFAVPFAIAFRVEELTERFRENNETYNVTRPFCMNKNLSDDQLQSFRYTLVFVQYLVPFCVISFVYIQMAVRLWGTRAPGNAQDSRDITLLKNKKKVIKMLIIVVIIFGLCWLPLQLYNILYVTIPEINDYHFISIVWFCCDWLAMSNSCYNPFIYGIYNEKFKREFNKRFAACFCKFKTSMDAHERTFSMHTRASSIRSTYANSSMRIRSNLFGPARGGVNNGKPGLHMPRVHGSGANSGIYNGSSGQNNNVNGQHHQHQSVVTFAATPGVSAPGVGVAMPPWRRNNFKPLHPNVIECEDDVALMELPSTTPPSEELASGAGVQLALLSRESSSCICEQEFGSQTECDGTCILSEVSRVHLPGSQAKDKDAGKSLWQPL
Description: Changes in intracellular calcium levels are another recognized indicator of G protein-coupled receptor activity, and such assays can be employed to screen for modulators of DmGPCR activity. For example, CHO cells stably transfected with a DmGPCR expression vector are plated at a density of 4×10^4 cells/well in Packard black-walled, 96-well plates specially designed to discriminate fluorescence signals emanating from the various wells on the plate. The cells are incubated for 60 minutes at 37° C. in modified Dulbecco's PBS (D-PBS) containing 36 mg/L pyruvate and 1 g/L glucose and one of four calcium indicator dyes (Fluo-3™ AM, Fluo-4™ AM, Calcium Green™-1 AM, or Oregon Green™ 488 BAPTA-1 AM), each at a concentration of 4 μM. Plates are washed once with modified D-PBS and incubated for 10 minutes at 37° C. to remove residual dye from the cellular membrane. In addition, a series of washes with modified D-PBS is performed immediately prior to activation of the calcium response.
A calcium response is initiated by the addition of one or more candidate receptor agonist compounds, calcium ionophore A23187 (10 μM; positive control), or ATP (4 μM; positive control). Fluorescence is measured by Molecular Device's FLIPR with an argon laser (excitation at 488 nm). (See, e.g., Kuntzweiler et al., Drug Dev. Res., 1998, 44(1), 14-20). The F-stop for the detector camera was set at 2.5, and the length of exposure was 0.4 milliseconds. Basal fluorescence of cells was measured for 20 seconds prior to addition of candidate agonist, ATP, or A23187, and the basal fluorescence level was subtracted from the response signal. The calcium signal is measured for approximately 200 seconds, taking readings every two seconds. Calcium ionophore A23187 and ATP increase the calcium signal 200% above baseline levels. In general, activated GPCRs increase the calcium signal approximately 10-15% above baseline signal.
as §5

Sequence of DmGPCR9 (as listed by the source): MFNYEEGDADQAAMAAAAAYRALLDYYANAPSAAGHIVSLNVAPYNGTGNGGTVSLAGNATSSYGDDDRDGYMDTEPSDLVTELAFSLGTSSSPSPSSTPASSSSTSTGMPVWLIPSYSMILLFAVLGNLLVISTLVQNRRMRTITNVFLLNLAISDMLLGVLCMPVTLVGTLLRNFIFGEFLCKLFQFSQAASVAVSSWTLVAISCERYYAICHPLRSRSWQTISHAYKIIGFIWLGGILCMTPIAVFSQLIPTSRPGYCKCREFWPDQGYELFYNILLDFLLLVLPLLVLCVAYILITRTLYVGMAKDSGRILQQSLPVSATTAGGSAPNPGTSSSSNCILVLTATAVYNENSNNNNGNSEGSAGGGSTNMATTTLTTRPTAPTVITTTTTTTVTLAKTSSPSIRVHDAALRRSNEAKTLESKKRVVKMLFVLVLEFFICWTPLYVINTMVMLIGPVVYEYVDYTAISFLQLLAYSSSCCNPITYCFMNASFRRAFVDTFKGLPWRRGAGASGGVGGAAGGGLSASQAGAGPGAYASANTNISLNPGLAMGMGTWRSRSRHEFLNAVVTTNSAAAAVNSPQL

Molecule: FDDYGHLRF-NH2 [unsulfated counterpart of FDDY(SO3H)GHLRF-NH2]
- calcium signal (DmGPCR9): very weak calcium signal

Molecule: CC(C)C[C@H](NC(=O)CNC(=O)[C@H](Cc1ccc(O)cc1)NC(=O)[C@H](Cc1ccccc1)NC(=O)[C@H](C)NC(=O)[C@H](CC(C)C)NC(=O)[C@@H]1CCCN1C(=O)[C@H](C)N)C(=O)N[C@@H](CCCNC(=N)N)C(N)=O [DTK-2, APLAFYGLR-NH2] (H-APLAFYGLR-NH2)
- EC50 (DmGPCR5 [1]): 1060 nM
- EC50, stimulation of GTPγS binding (DmGPCR5 [2]; DmGPCR5, given in words): low micromolar range

Molecule: CC(C)C[C@H](NC(=O)[C@H](CCCNC(=N)N)NC(=O)[C@H](CC(C)C)NC(=O)[C@H](CCC(N)=O)NC(=O)[C@@H]1CCCN1C(=O)CNC(=O)[C@H](CCCNC(=N)N)NC(=O)[C@H](C)N)C(=O)N[C@@H](CCCNC(=N)N)C(=O)N[C@@H](Cc1ccccc1)C(N)=O [ARGPQLRLRF-NH2] (H-ARGPQLRLRF-NH2; N-terminus assumed)
- EC50 (DmGPCR1): 100 to 200 nM

Molecule: CNc1ccc2oc(C[C@H]3O[C@@]4(CC[C@H]3C)O[C@H]([C@H](C)C(=O)c3ccc[nH]3)[C@H](C)C[C@H]4C)nc2c1C(=O)O [A23187]
- increase of the calcium signal above baseline levels [3]: 200%

Molecule: FLFQPQRF-NH2 [NPFF]
- increase in GTPγS binding above the basal (DmGPCR6a): 4 fold
- Ca+2 responses (FLIPR) (Dmgpcr6aL): recognized
- Ca+2 responses (FLIPR) (Dmgpcr6bL): recognized

Molecule: CSCC[C@H](NC(=O)CNC(=O)[C@H](Cc1ccc(O)cc1)NC(=O)[C@H](Cc1ccccc1)NC(=O)[C@H](C)NC(=O)[C@H](CC(C)C)NC(=O)[C@@H]1CCCN1C(=O)[C@H](C)N)C(=O)N[C@@H](CCCNC(=N)N)C(N)=O [Met8-DTK-2, APLAFYGMR-NH2] (H-APLAFYGMR-NH2)
- maximal stimulation of GTPγS binding above basal level (DmGPCR5 [2]; DmGPCR5, dose-response): ca. 1.5 fold

Molecule: pGlu-SSFHSWGa [LK-VI]
- EC50, intracellular calcium release (FLIPR) (DmGPCR7): picomoloar to subnanomolar range

Molecule: NPFHSWG [Culekinin, NPFHSWGa]
- EC50, intracellular calcium release (FLIPR) (DmGPCR7): picomoloar to subnanomolar range

Molecule: CC[C@H](C)[C@H](NC(=O)[C@H](Cc1ccccc1)NC(=O)[C@H](CO)NC(=O)[C@H](CO)NC(=O)[C@@H](NC(=O)[C@@H]1CCCN1C(=O)[C@H](C)N)[C@@H](C)O)C(=O)NCC(=O)N[C@@H](CCSC)C(=O)N[C@@H](CCCNC(=N)N)C(N)=O [DTK-1, APTSSFIGMR-NH2] (H-APTSSFIGMR-NH2)
- EC50 (DmGPCR5 [2]): 250 to 500 nM
